Consider 22 compounds from patent US20240124444A1 (Celgene Corporation, priority 2020, published 2024).

This test has as its system C. parvum strain UGA1. Briefly: C. parvum growth inhibition assay (Nluc luminescence in HCT-8 cells). Format: cell-based, Cryptosporidium parvum. Conditions: Cryptosporidium parvum; for EC50: HCT-8, 48 h, C. parvum growth inhibition in HCT-8 cells, 48 hours, 6 concentrations 10-0.04 μM; for inhibition at 1 µM / inhibition at 10 µM: HCT-8; for inhibition at 1 µM: read-out: % inh @ 1 uM C. parvum; for inhibition at 10 µM: read-out: % inh @ 10 uM C. parvum.

[1] abbreviates: single point inhibition at 1 uM.
Where [2] appears, read: single point inhibition at 10 uM.
Setting [3] is: single point inhibition @ 10 uM.

Like-named read-outs stand apart in the source and are kept apart here.

Usually EC50 stands for the midpoint of the concentration-response curve. For the compound `Cc1cc(-c2cc3cnc(NC4CCN(C)CC4)cc3[nH]2)ccn1` [Example 112, N-(1-methylpiperidin-4-yl)-2-(2-methylpyridin-4-yl)-1H-pyrrolo[3,2-c]pyridin-6-amine], the EC50 is more than 1 µM.
On to `O=C(Nc1cc2[nH]c(-c3ccc(F)cn3)cc2cn1)C1CC1` [Example 268, N-(2-(5-fluoropyridin-2-yl)-1H-pyrrolo[3,2-c]pyridin-6-yl)cyclopropanecarboxamide], for which, under setting [1], the inhibition at 1 µM lay in the range of 0 to 33%. Further, the inhibition at 10 µM under setting [2] was 0 to 33%.
Turning to `CCOc1nccc(-c2cc3cnc(NC(=O)[C@@H]4C[C@H]4C)cc3[nH]2)n1` (stereo in doubt) [Example 153, (1R,2R)-N-(2-(2-ethoxypyrimidin-4-yl)-1H-pyrrolo[3,2-c]pyridin-6-yl)-2-methylcyclopropanecarboxamide], the inhibition at 1 µM (single point inhibition @ 1 uM) lay in the range of 0 to 33%. Under setting [3], the inhibition at 10 µM fell in the range of 67 to 100%.
Regarding `O=C(Nc1cc2[nH]c(-c3ccncc3)cc2cn1)c1cnn(C2CCOCC2)c1` [Example 154, N-(2-(pyridin-4-yl)-1H-pyrrolo[3,2-c]pyridin-6-yl)-1-(tetrahydro-2H-pyran-4-yl)-1H-pyrazole-4-carboxamide], where the note is “single point inhibition @ 1 uM”, the inhibition at 1 µM was 0 to 33%. In addition, under setting [3], the inhibition at 10 µM was 67 to 100%.
Take `Cn1cncc1-c1cc2cnc(Nc3ccc(F)cc3)cc2[nH]1` [Example 229, N-(4-fluorophenyl)-2-(1-methyl-1H-imidazol-5-yl)-1H-pyrrolo[3,2-c]pyridin-6-amine]: the inhibition at 1 µM under setting [1] fell in the range of 33 to 66%. The inhibition at 10 µM under setting [2] was in the range of 33 to 66%.
Consider `COc1nccc(-c2cc3cnc(NC(=O)c4cn(CC5CCOC5)nc4C)cc3[nH]2)n1` (stereo in doubt) [Example 246, (R)-N-(2-(2-methoxypyrimidin-4-yl)-1H-pyrrolo[3,2-c]pyridin-6-yl)-3-methyl-1-((tetrahydrofuran-3-yl)methyl)-1H-pyrazole-4-carboxamide], for which the inhibition at 1 µM under setting [1] is 0 to 33%. Also, the inhibition at 10 µM under setting [2] was in the range of 0 to 33%.
As for `CC(C)COc1nccc(-c2cc3cnc(NC(=O)c4cnn(C)c4)cc3[nH]2)n1` [Example 311, N-(2-(2-isobutoxypyrimidin-4-yl)-1H-pyrrolo[3,2-c]pyridin-6-yl)-1-methyl-1H-pyrazole-4-carboxamide], the inhibition at 1 µM under setting [1] lay within 0 to 33%. Further, under setting [2], the inhibition at 10 µM lay within 0 to 33%.
`Cc1cc(-c2cc3cnc(NC(=O)CN4CCCC4)cc3n2C)ncn1` [Example 128, N-(1-methyl-2-(6-methylpyrimidin-4-yl)-1H-pyrrolo[3,2-c]pyridin-6-yl)-2-(pyrrolidin-1-yl)acetamide] showed an EC50 of more than 1 µM.
For the compound `Cc1nc(-c2cc3cnc(NC(=O)C4CC4)cc3[nH]2)co1` [Example 335, N-(2-(2-methyloxazol-4-yl)-1H-pyrrolo[3,2-c]pyridin-6-yl)cyclopropanecarboxamide], the inhibition at 1 µM under setting [1] fell in the range of 0 to 33%. For the same compound, under setting [2], the inhibition at 10 µM lay in the range of 0 to 33%.
On to `Cn1c(-c2ccnc(NCC(F)(F)F)n2)cc2cnc(NC3CCOCC3)cc21` [Example 358, 1-methyl-N-(tetrahydro-2H-pyran-4-yl)-2-(2-(2,2,2-trifluoroethylamino)pyrimidin-4-yl)-1H-pyrrolo[3,2-c]pyridin-6-amine], for which the EC50 is less than 0.5 µM.
As for `CC(=O)Nc1cc2[nH]c(-c3ccncc3)cc2cn1` [Example 181, N-(2-(pyridin-4-yl)-1H-pyrrolo[3,2-c]pyridin-6-yl)acetamide], the inhibition at 1 µM (single point inhibition @ 1 uM) was in the range of 0 to 33%. Besides, the inhibition at 10 µM under setting [3] lay in the range of 67 to 100%.
In the case of `COc1nccc(-c2cc3cnc(NC(=O)[C@H]4C[C@@H](O)C4)cc3n2C)n1` [Example 163, (1s,3s)-3-hydroxy-N-(2-(2-methoxypyrimidin-4-yl)-1-methyl-1H-pyrrolo[3,2-c]pyridin-6-yl)cyclobutanecarboxamide], the inhibition at 1 µM (single point inhibition @ 1 uM) lay within 0 to 33%. For the same compound, the inhibition at 10 µM under setting [3] was in the range of 67 to 100%.
On to `CO[C@H]1CC[C@H](Nc2cc3[nH]c(-c4cccnc4)cc3cn2)CC1` [Example 274, N-((1r,4r)-4-methoxycyclohexyl)-2-(pyridin-3-yl)-1H-pyrrolo[3,2-c]pyridin-6-amine], for which, under setting [1], the inhibition at 1 µM lay in the range of 0 to 33%. For the same compound, under setting [2], the inhibition at 10 µM lay within 0 to 33%.
Consider `Cn1c(-c2ccnc(NCC(F)(F)F)n2)cc2cnc(NC(=O)c3cnn(C4CCOC4)c3)cc21` (stereo in doubt) [Example 142, (R)-N-(1-methyl-2-(2-(2,2,2-trifluoroethylamino)pyrimidin-4-yl)-1H-pyrrolo[3,2-c]pyridin-6-yl)-1-(tetrahydrofuran-3-yl)-1H-pyrazole-4-carboxamide], for which the inhibition at 1 µM (single point inhibition @ 1 uM) fell in the range of 67 to 100%. For the same compound, under setting [3], the inhibition at 10 µM lay within 67 to 100%.
In the case of `CO[C@H]1C[C@@H](C(=O)Nc2cc3[nH]c(-c4ccnc(C)c4)cc3cn2)C1` [Example 191, (1s,3s)-3-methoxy-N-(2-(2-methylpyridin-4-yl)-1H-pyrrolo[3,2-c]pyridin-6-yl)cyclobutanecarboxamide], where the note is “single point inhibition @ 1 uM”, the inhibition at 1 µM was 0 to 33%. Moreover, under setting [3], the inhibition at 10 µM lay in the range of 67 to 100%.
For the compound `O=C(Nc1cc2[nH]c(C3CCOCC3)cc2cn1)C1CC1` [Example 94, N-(2-(tetrahydro-2H-pyran-4-yl)-1H-pyrrolo[3,2-c]pyridin-6-yl)cyclopropanecarboxamide], the EC50 is more than 1 µM. Also, the inhibition at 1 µM (single point inhibition @ 1 uM) lay in the range of 0 to 33%. The inhibition at 10 µM under setting [3] lay in the range of 0 to 33%.
As to `Cn1cnc(-c2cc3cnc(NC(=O)C4CC4)cc3n2C)n1` [Example 57, N-(1-methyl-2-(1-methyl-1H-1,2,4-triazol-3-yl)-1H-pyrrolo[3,2-c]pyridin-6-yl)cyclopropanecarboxamide], the EC50 was more than 1 µM.
The same measure, in the same setting: in the case of `CN1CCC(C(=O)Nc2cc3[nH]c(C(F)(F)F)cc3cn2)CC1` [Example 109, 1-methyl-N-(2-(trifluoromethyl)-1H-pyrrolo[3,2-c]pyridin-6-yl)piperidine-4-carboxamide] it was more than 1 µM.
For the compound `CC(C)n1cc(C(=O)Nc2cc3[nH]c(-c4ccnc(OC(C)C(F)(F)F)n4)cc3cn2)cn1` (stereo not shown) [Example 149, 1-isopropyl-N-(2-(2-(1,1,1-trifluoropropan-2-yloxy)pyrimidin-4-yl)-1H-pyrrolo[3,2-c]pyridin-6-yl)-1H-pyrazole-4-carboxamide], under “single point inhibition @ 1 uM”, the inhibition at 1 µM is 0 to 33%. For the same compound, the inhibition at 10 µM under setting [3] lay within 67 to 100%.
Compound `Cn1c(-c2ccnc(NCC(F)(F)F)n2)cc2cnc(N[C@H]3CCCOC3)cc21` (racemic) [Example 36, 1-Methyl-N-[rac-(3s)-tetrahydropyran-3-yl]-2-[2-(2,2,2-trifluoroethylamino)pyrimidin-4-yl]pyrrolo[3,2-c]pyridin-6-amine] showed an EC50 of more than 1 µM. Where the note is “single point inhibition @ 1 uM”, the inhibition at 1 µM was 33 to 66%. For the same compound, the inhibition at 10 µM under setting [3] is 67 to 100%.
In the case of `COc1nccc(-c2cc3cnc(NC(=O)c4cnn(CC5CCOC5)c4)cc3[nH]2)n1` (stereo in doubt) [Example 156, (S)-N-(2-(2-methoxypyrimidin-4-yl)-1H-pyrrolo[3,2-c]pyridin-6-yl)-1-((tetrahydrofuran-3-yl)methyl)-1H-pyrazole-4-carboxamide], for the setting “single point inhibition @ 1 uM”, the inhibition at 1 µM is 0 to 33%. The inhibition at 10 µM under setting [3] lay in the range of 67 to 100%.
Take `Cn1cnc(-c2cc3cnc(NC4CCOCC4)cc3[nH]2)c1` [Example 123, 2-(1-methyl-1H-imidazol-4-yl)-N-(tetrahydro-2H-pyran-4-yl)-1H-pyrrolo[3,2-c]pyridin-6-amine]: the EC50 was more than 1 µM.
